Like-named read-outs stand apart in the source and are kept apart here.
Tests used:
[1] = tested on: human lung cancer strain NCI-H441;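 note: cell proliferation inhibition after four days measured by CellTiter-Glo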
[2] = molecular target: GDP-bound KRAS wild-type protein (Homo sapiens, UniProt P01116); test: Binding to KRAS by surface plasmon resonance (SPR), Single Cycle Kinetics
[3] = molecular target: GDP-bound NRAS wild-type protein (Homo sapiens, UniProt P01111); test: Binding to NRAS by surface plasmon resonance (SPR), Single Cycle Kinetics; details: for NRAS/KRAS (ratio of KD value for NRAS to KD value for KRAS): GDP-bound NRAS wild-type protein vs GDP-bound KRAS wild-type protein
GDP-bound NRAS wild-type protein, sequence (P01111 whole entry): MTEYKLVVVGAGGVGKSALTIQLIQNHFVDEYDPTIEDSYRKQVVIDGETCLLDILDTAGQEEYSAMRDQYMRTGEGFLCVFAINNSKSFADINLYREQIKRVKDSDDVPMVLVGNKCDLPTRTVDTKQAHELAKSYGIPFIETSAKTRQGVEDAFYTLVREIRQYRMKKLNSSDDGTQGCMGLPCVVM

[4] = molecular target: GDP-bound HRAS wild-type protein (Homo sapiens, UniProt P01112); test: Binding to HRAS by surface plasmon resonance (SPR), Single Cycle Kinetics; details: for HRAS/KRAS (ratio of KD value for HRAS to KD value for KRAS): GDP-bound HRAS wild-type protein vs GDP-bound KRAS wild-type protein
GDP-bound HRAS wild-type protein, sequence (P01112 whole entry): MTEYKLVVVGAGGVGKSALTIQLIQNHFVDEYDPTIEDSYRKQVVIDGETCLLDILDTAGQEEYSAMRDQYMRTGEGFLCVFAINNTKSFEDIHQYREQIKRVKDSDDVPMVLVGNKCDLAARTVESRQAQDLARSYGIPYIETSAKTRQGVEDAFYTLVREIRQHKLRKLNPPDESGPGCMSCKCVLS

[5] = SPR, Single Cycle Kinetics, GDP-bound KRAS wild-type protein, read-out: KRAS KD
[6] = SPR, Single Cycle Kinetics, 1:1 binding model, GDP-bound KRAS wild-type protein, read-out: KRAS KD

GDP-bound KRAS wild-type protein, sequence (P01116 whole entry): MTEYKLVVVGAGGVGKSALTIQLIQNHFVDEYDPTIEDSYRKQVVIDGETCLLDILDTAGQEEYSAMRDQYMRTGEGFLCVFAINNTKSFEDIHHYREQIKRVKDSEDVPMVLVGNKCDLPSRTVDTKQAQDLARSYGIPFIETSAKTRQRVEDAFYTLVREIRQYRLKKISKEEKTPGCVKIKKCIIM

SMILES | IC50 [1] [nM] | Kd [2, 6] [nM] | NRAS/KRAS (ratio of KD value for NRAS to KD value for KRAS) ([3]; SPR, KD ratio class) | HRAS/KRAS (ratio of KD value for HRAS to KD value for KRAS) ([4]; SPR, KD ratio class) | also measured
CCOC[C@H]1C(=O)N[C@@H]([C@@H](C)CC)C(=O)N(C)CC(=O)N(C)[C@H]2C/C=C\CCN(C2=O)[C@@H](Cc2ccc(C)cc2)C(=O)N(C)CC(=O)N[C@@H](CCc2cc(F)c(C(F)(F)F)c(F)c2)C(=O)N2C[C@@H](C)C[C@H]2C(=O)NC2(CC(C)(C)C2)C(=O)N(C)[C@@H](C2CCCC2)C(=O)N(C)[C@H](C(=O)N(CC)CC)CC(=O)N1C [PP2407] | 60.1 | – | – | – | Kd [2, 5]: 0.5 nM; NRAS/KRAS (ratio of KD value for NRAS to KD value for KRAS) ([3]; SPR): A (a compound having 10 or more and less than 20 is denoted as A); HRAS/KRAS (ratio of KD value for HRAS to KD value for KRAS) ([4]; SPR): A (a compound having 10 or more and less than 20 is denoted as A)
CCO[C@@H]1C[C@H]2C(=O)NC3(CCC3)C(=O)N(C)[C@@H](C3CCCC3)C(=O)N(C)[C@H](C(=O)N3CCCC3)CC(=O)N(C)[C@@H](CC3CC3)C(=O)N[C@@H]([C@@H](C)CC)C(=O)N(C)CC(=O)N(C)[C@H]3C/C=C\CCN(C3=O)[C@@H](Cc3ccc(C(F)(F)F)cc3)C(=O)N(C)CC(=O)N[C@@H](CCc3cc(F)c(C(F)(F)F)c(F)c3)C(=O)N2C1 [PP1296] | 14.7 | 0.12 | AA (a compound having 20 or more is denoted as AA) | A (a compound having 10 or more and less than 20 is denoted as A) | –
CCC[C@H]1C(=O)N[C@@H]([C@@H](C)CC)C(=O)N2CCC[C@H]2C(=O)N(C)[C@H]2C/C=C\CCN(C2=O)[C@@H](Cc2ccc(C(F)(F)F)cc2)C(=O)N(C)CC(=O)N[C@@H](CCc2ccc(C(F)(F)F)c(OC)c2)C(=O)N2C[C@H](OCC)C[C@H]2C(=O)N(C)C2(CCC2)C(=O)N(C)[C@@H](C2CCCC2)C(=O)N(C)[C@H](C(=O)N2CCCCC2)CC(=O)N1C [PP3099] | – | – | – | – | IC50 ([1]; read-out: NCI-H441 cell proliferation inhibitory activity, 50% proliferation inhibitory concentration (IC50 value), NCI-H441, four days, CellTiter-Glo): 13.3 nM; Kd ([2]; SPR, Single Cycle Kinetics, 1:1 binding model, read-out: KD value with respect to GDP-bound KRAS wild-type protein): 0.61 nM; Kd [2, 5]: 0.61 nM; NRAS/KRAS (ratio of KD value for NRAS to KD value for KRAS) ([3]; SPR): A (a compound having 10 or more and less than 20 is denoted as A); ratio of the KD value with respect to GDP-bound NRAS wild-type protein to the KD value with respect to KRAS ([3]; SPR, KD(NRAS)/KD(KRAS)): A (a compound having 10 or more and less than 20 is denoted as A); HRAS/KRAS (ratio of KD value for HRAS to KD value for KRAS) ([4]; SPR): A (a compound having 10 or more and less than 20 is denoted as A); ratio of the KD value with respect to GDP-bound HRAS wild-type protein to the KD value with respect to KRAS ([4]; SPR, KD(HRAS)/KD(KRAS)): A (a compound having 10 or more and less than 20 is denoted as A)
CC[C@H](C)[C@@H]1NC(=O)[C@H](CC)N(C)C(=O)C[C@@H](C(=O)N(C)C)N(C)C(=O)[C@H](C2CCCC2)N(C)C(=O)C2(CCC2)NC(=O)[C@@H]2CC(F)(F)CN2C(=O)[C@H](CCc2cc(F)c(C(F)(F)F)c(F)c2)NC(=O)CN(C)C(=O)[C@H](Cc2ccc(C(F)(F)F)cc2)N2CC/C=C\C[C@@H](C2=O)N(C)C(=O)CN(C)C1=O [PP1129, (2S,8S,14S,20S,23S,27S,30S,36S,38Z)-20-cyclopentyl-8-[2-[3,5-difluoro-4-(trifluoromethyl)phenyl]ethyl]-27-ethyl-12,12-difluoro-N,N,4,19,22,26,32,35-octamethyl-30-[(1S)-1-methylpropyl]-3,6,9,15,18,21,25,28,31,34,42-undecaoxo-2-[[4-(trifluoromethyl)phenyl]methyl]spiro[1,4,7,10,16,19,22,26,29,32,35-undecazatricyclo[34.5.1.0^10,14]dotetracont-38-ene-17,1′-cyclobutane]-23-carboxamide] | 10.2 | – | – | – | Kd [2, 5]: 0.056 nM; NRAS/KRAS (ratio of KD value for NRAS to KD value for KRAS) ([3]; SPR): A (a compound having 10 or more and less than 20 is denoted as A); HRAS/KRAS (ratio of KD value for HRAS to KD value for KRAS) ([4]; SPR): B (a compound having 3 or more and less than 10 is denoted as B)
CCCOC[C@H]1C(=O)N[C@@H]([C@@H](C)CC)C(=O)N(C)CC(=O)N(C)[C@H]2C/C=C\CCN(C2=O)[C@@H](Cc2ccc(C)cc2)C(=O)N(C)CC(=O)N[C@@H](CCc2cc(F)c(C(F)(F)F)c(F)c2)C(=O)N2C[C@H](OCC)C[C@H]2C(=O)NC2(CC(C)(C)C2)C(=O)N(C)[C@@H](CC2CCC2)C(=O)N(C)[C@H](C(=O)N(C)C)CC(=O)N1C [PP2752] | 70.3 | – | – | – | Kd ([2]; SPR Single Cycle Kinetics, GDP-bound KRAS wild-type protein, 1:1 binding model, read-out: KRAS KD): 1.2 nM; NRAS/KRAS (ratio of KD value with respect to GDP-bound NRAS wild-type protein to KD value with respect to KRAS) ([3]; SPR KD ratio NRAS/KRAS, class symbols): A (a compound having 10 or more and less than 20 is denoted as A); HRAS/KRAS (ratio of KD value with respect to GDP-bound HRAS wild-type protein to KD value with respect to KRAS) ([4]; SPR KD ratio HRAS/KRAS, class symbols): A (a compound having 10 or more and less than 20 is denoted as A)
CCO[C@@H]1C[C@H]2C(=O)NC3(CCC3)C(=O)N(C)[C@@H](C(CC)CC)C(=O)N(C)[C@H](C(=O)N(C)C)CC(=O)N(C)[C@@H](CC3CC3)C(=O)N[C@@H]([C@@H](C)CC)C(=O)N(C)CC(=O)N(C)[C@H]3C/C=C\CCN(C3=O)[C@@H](Cc3ccc(C(F)(F)F)cc3)C(=O)N(C)CC(=O)N[C@@H](CCc3ccc(Cl)c(Cl)c3)C(=O)N2C1 [PP1219] | 21.4 | 0.35 | AA (a compound having 20 or more is denoted as AA) | A (a compound having 10 or more and less than 20 is denoted as A) | –
CCO[C@@H]1C[C@H]2C(=O)NC3(CCC3)C(=O)N(C)[C@@H](C3CCCC3)C(=O)N(C)[C@H](C(=O)N(C)C)CC(=O)N(C)[C@@H](CC3CC3)C(=O)N[C@@H]([C@@H](C)CC)C(=O)N(C)CC(=O)N(C)[C@H]3C/C=C\CCN(C3=O)[C@@H](Cc3ccc(F)cc3)C(=O)N(C)CC(=O)N[C@@H](CCc3ccc(Cl)c(Cl)c3)C(=O)N2C1 [PP1478] | 102 | 0.34 | A (a compound having 10 or more and less than 20 is denoted as A) | A (a compound having 10 or more and less than 20 is denoted as A) | –
CCC[C@H]1C(=O)N[C@@H]([C@@H](C)CC)C(=O)N(C)CC(=O)N(C)[C@H]2C/C=C\CCN(C2=O)[C@@H](Cc2ccc(C(F)(F)F)cc2)C(=O)N(C)CC(=O)N[C@@H](CCc2ccc(C(F)(F)F)c(OC)c2)C(=O)N2C[C@H](OCC)C[C@H]2C(=O)NC2(CCC2)C(=O)N(C)[C@@H](C(CC)CC)C(=O)N(C)[C@H](C(=O)N(C)C)CC(=O)N1C [PP1208] | 24.4 | 0.17 | AA (a compound having 20 or more is denoted as AA) | A (a compound having 10 or more and less than 20 is denoted as A) | –
CCO[C@@H]1C[C@H]2C(=O)NC3(CCCC3)C(=O)N(C)[C@@H](C3CCCC3)C(=O)N(C)[C@H](C(=O)N(C)C)CC(=O)N(C)[C@@H](C)C(=O)N[C@@H]([C@@H](C)CC)C(=O)N(C)CC(=O)N(C)[C@H]3C/C=C\CCN(C3=O)[C@@H](CC3CCCCC3)C(=O)N(C)CC(=O)N[C@@H](CCc3cc(F)c(C(F)(F)F)c(F)c3)C(=O)N2C1 [PP1470] | 111 | 0.22 | A (a compound having 10 or more and less than 20 is denoted as A) | A (a compound having 10 or more and less than 20 is denoted as A) | –
CCO[C@@H]1C[C@H]2C(=O)NC3(CCC3)C(=O)N(C)[C@@H](C(CC)CC)C(=O)N(C)[C@H](C(=O)N(C)C)CC(=O)N(C)[C@@H](CC(C)C)C(=O)N[C@@H]([C@@H](C)CC)C(=O)N(C)CC(=O)N(C)[C@H]3C/C=C\CCN(C3=O)[C@@H](CC3CCC(F)(F)CC3)C(=O)N(C)CC(=O)N[C@@H](CCc3cc(F)c(C(F)(F)F)c(F)c3)C(=O)N2C1 [PP1433] | 44.4 | 0.46 | AA (a compound having 20 or more is denoted as AA) | A (a compound having 10 or more and less than 20 is denoted as A) | –
CCO[C@@H]1C[C@H]2C(=O)NC3(CCC3)C(=O)N(C)[C@@H](C3CCCC3)C(=O)N(C)[C@H](C(=O)N3CCOCC3)CC(=O)N(C)[C@@H](CC(C)C)C(=O)N[C@@H]([C@@H](C)CC)C(=O)N3CC[C@H]3C(=O)N(C)[C@H]3CC[C@@H](C)CN(C3=O)[C@@H](Cc3ccc(C(F)(F)F)cc3)C(=O)N(C)CC(=O)N[C@@H](CCc3ccc(C(F)(F)F)c(Cl)c3)C(=O)N2C1 [PP1379] | 10.3 | 0.29 | A (a compound having 10 or more and less than 20 is denoted as A) | B (a compound having 3 or more and less than 10 is denoted as B) | –
